One assay relates to Aβ. The arrangement: method as in PMID 15511626. The following applies: cited from earlier work.
Assay [1] has as its target T1, Aβ42 (Homo sapiens, UniProt P05067).
T1 construct: Human Aβ42 (4349-v, Peptide Institute); purchased Peptide Institute 4349-v
Put plainly: manual MSHTS system, Aβ aggregation inhibition. Format: biochemical. Conditions: 30 µM Aβ; for EC50: 30 nM QDAβ, 24 h at 37 °C, read-out: EC50 (μM) Aβ. The method, then: The automated MSHTS system used was based on the method described in the Supplementary Methods. In this study, EC50 values of the plant crude extract library and the compound library were measured by the automated MSHTS system and the manual MSHTS system[19],[20], respectively. All fluorescence micrograph images were taken using a 4x objective in the MSHTS systems. […]
concentrations of RA were incubated with 30 µM A β and 30 nM QD 655-labeled Aβ or QD605-labeled Aβ in a 1536-well plate according to our previous reports1,5. Fluorescence micrographs […]
presence of 600 and 120 µM RA.
(1 picture or pasted object on this page, not shown here) […]
QDAβ were incubated with various concentrations of chaperones i n a 1536-well plate for 24 h at 37 ° C and observed by fluorescence microscopy. C, E, and P indicate CRT , ERp57, and PDI, respectively. EC50 and the SD values were determined from the micrographs of three independent

Assay [2] addresses T1, Aβ42. As to the kind of experiment: automated MSHTS system, Aβ aggregation inhibition imaged with QDAβ nanoprobe. The format is biochemical. The method, then:
An outline of the automated MSHTS system developed in this study is as follows (Fig. 1e). First, sample solutions, such as natural extracts and/or chemical compounds, were diluted stepwise in a 384-well plate. The diluted samples in this plate were injected into a 1536-well plate at 2.5 µl per well (Supplementary Fig. S6a). […] The 1536-well plate was sealed, and each well was imaged by a fluorescence microscope system. After incubation to induce aggregation for 24 h at 37 °C, each well was imaged by a fluorescence microscope system. The images were analyzed to determine the SD values of fluorescence intensity of each pixel. The half-maximal effective concentration (EC50) was estimated from the SD values according to our previous method.
The automated MSHTS system used was based on the method described in the Supplementary Methods. In this study, EC50 values of the plant crude extract library and the compound library were measured by the automated MSHTS system and the manual MSHTS system[19],[20], respectively. All fluorescence micrograph images were taken using a 4x objective in the MSHTS systems.
Automated MSHTS system–sample preparation and mixing with Aβ
Sample preparation was carried out using Automated Workstation JANUS G3 (Perkin Elmer).
To make a dilution series of samples, dilution buffer (10%EtOH, 1×PBS) was aspirated ( asp. speed:
20 µl/s) using a conductive chip that can detect liquid level and injected (dsp. height: 0.75 mm, dsp. speed: 10 µl/s) into each well of a 384-well plate (384 Hard-shell micro plate HSP3951, BIO-RAD) without wells for injecting stoc k sample solution. Stock sample solutions were prepared, and were injected manually into the vacant wells of the 384-well plate. As a control without any inhibitor, dilution buffer alone was injected into the well instead of stock sample solution. The stock sample solution or control solution was aspirated (asp. height: 2 mm, asp. speed: 10 µl/s), injected (dsp. height: 4 mm, dsp. speed: 10 µl/s) into the next well containing the dilution buffer, and mixed by pipetting (asp. height: 2 mm, dsp. height: 4 m m , mix speed: 25 µl/s, mix cycles: 5). This dilution st ep was repeated five times, so that si x dilution series were prepared for each sample. The diluted samples in the 384-well plate were aspirated using a 384-chip head (asp. height: 1 mm, asp. speed:
3 µl/s) and injected (quadruplicate) (dsp. height: 1 mm, dsp. speed: 10 µl/s) into a 1536-well plate (1536 well FIA black plate, Greiner Bio-One) at 2.5 µl per well. […]
After centrifugation in a multi-well plate centrifuge, the 1536-well plate was observed by an inverted fluorescence microscope system (ECLIPSE Ti-E, Nikon) equipped with a color CCD camer a (DS-Ri2, Nikon). […]

Another assay addresses T2, tau MBD fragment (Mus musculus, UniProt P10637).
T2 construct: added N-terminal methionine (from NdeI site) (N); made in house; host or cells: E. coli Rosetta (DE3) pLys, pET-21a(+)
As to the kind of experiment: MSHTS system, tau aggregation inhibition with QDTau nanoprobe. Format: biochemical. Conditions: 10 µM tau, 50 nM QDTau, 10 µM heparin, 10 mM DTT, 24 h at 37 °C. From the text:
In this study, we used the microtubule-binding domain (MBD) fragment of 4-repeat tau (Fig. 4a) to image tau aggregation. First, we examined the aggregated condition of tau in the presence of heparin, which formed paired helical-like filaments under physiological conditions in vitro, according to early reports[24],[25]. […] Since 4-repeat tau contains two Cys residues (C222 and C253), it may be necessary for aggregation to occur, to inhibit intramolecular disulfide crosslinking, as was reported in a previous report. […] When 10 μM tau was incubated in the presence of 10 mM DTT, the SD value reached a maximum (Supplementary Fig. S10c,d), so we decided to observe aggregation using 10 μM tau. […] We compared tau and Aβ aggregates by TEM observation. The morphology of tau and Aβ fibrils was difficult to distinguish (Fig. 4b). […] We also confirmed by TEM observation that the aggregation of tau and Aβ contained QD nanoprobes (Fig. 4d). These aggregations were directly observed by confocal microscopy in real time (Fig. 4e). […] The imaging method using a QD nanoprobe without a drying step as in TEM observation may be suitable for detailed observation of aggregate shapes in solution.
Supplementary Fig. S11 Inhibition of tau aggregation by RA (a) and spearmint extract (b). 10 µM tau, 50 nM QDTau, 10 µM heparin, 10 mM DTT were incubated with various concentrations of RA […]
for 24 h at 37 ° C and observed by fluorescence microscopy. EC50 and the SD values were determined from the micrographs of three independent wells.
(1 picture or pasted object on this page, not shown here)
Supplementary Fig. S12 Inhibition of tau and Aβ aggregation by chaperones. 10 µM tau, 50 nM QDTau, 10 µM heparin, 10 mM DTT were incubated with various concentrations of chaperon es in a 1536-well plate for 24 h at 37 °C and observed by fluorescence microscopy. 30 µM Aβ , 30 nM QDAβ were incubated with various concentrations of chaperones i n a 1536-well plate for 24 h at 37 ° C and observed by fluorescence microscopy. C, E, and P indicate CRT , ERp57, and PDI, respectively. EC50 and the SD values were determined from the micrographs of three independent

T2 sequence (P10637 with tags, fused parts or gaps isoform P10637-5 limits assumed): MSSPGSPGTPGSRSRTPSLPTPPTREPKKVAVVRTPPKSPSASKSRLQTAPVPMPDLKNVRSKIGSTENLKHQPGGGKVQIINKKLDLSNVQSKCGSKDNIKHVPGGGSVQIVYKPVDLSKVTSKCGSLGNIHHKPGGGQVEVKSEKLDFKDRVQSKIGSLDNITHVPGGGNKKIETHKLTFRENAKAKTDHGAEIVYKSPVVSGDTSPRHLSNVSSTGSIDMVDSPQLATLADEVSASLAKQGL
T1 sequence (P05067 672-713 limits assumed): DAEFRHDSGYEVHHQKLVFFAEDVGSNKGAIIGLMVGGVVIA

For the molecule Tannic acid, the “inhibition of Aβ aggregation (in words)” value in the assay on Aβ was “dose-dependently inhibited”.
In general, EC50 refers to the midpoint of the concentration-response curve. As for `O=C(/C=C/c1ccc(O)c(O)c1)O[C@H](Cc1ccc(O)c(O)c1)C(=O)O` [RA, rosmarinic acid], on Aβ42 [1] (600 and 120 µM, 30 nM QD655- or QD605-labeled Aβ), the “Aβ aggregation at 600 and 120 µM” value is recorded as “inhibited”. Also, the EC50 on Aβ42 [2] (25 µM Aβ, 25 nM QDAβ, 1536-well plate, 24 h at 37 °C, average of 61 sets, read-out: EC50 of Aβ aggregation inhibition, positive control) came out at 26900 ± 4570 nM. In addition, the “Aβ aggregation inhibition at 120 µM, mixed by pipetting 10 times” value at Aβ42 [2] (120 µM, pipetting 10 times) is recorded as “did not inhibit”. Besides, at Aβ42 [2] (120 µM, pipetting three or five times), the “Aβ aggregation inhibition at 120 µM, mixed by pipetting three or five times” value is reported as “inhibited”. For the same molecule, the “Aβ aggregation at 300 and 60 µM” value at Aβ42 [2] (300 and 60 µM, 25 µM Aβ, 24 h at 37 °C) was “inhibited”. The “EC50 of tau aggregation inhibition (in words)” value at tau MBD fragment is “could not be determined”.
Consider Protein disulfide isomerase [PDI], for which the EC50 with Aβ42 [1] was 1 ± 0.206 µM; in the assay with tau MBD fragment it was 12.7 ± 4.6 µM.

B1: calreticulin (protein, UniProt P27797 18-417, looked up)
Calreticulin: EPAVYFKEQFLDGDGWTSRWIESKHKSDFGKFVLSSGKFYGDEEKDKGLQTSQDARFYALSASFEPFSNKGQTLVVQFTVKHEQNIDCGGGYVKLFPNSLDQTDMHGDSEYNIMFGPDICGPGTKKVHVIFNYKGKNVLINKDIRCKDDEFTHLYTLIVRPDNTYEVKIDNSQVESGSLEDDWDFLPPKKIKDPDASKPEDWDERAKIDDPTDSKPEDWDKPEHIPDPDAKKPEDWDEEMDGEWEPPVIQNPEYKGEWKPRQIDNPDYKGTWIHPEIDNPEYSPDPSIYAYDNFGVLGLDLWQVKSGTIFDNFLITNDEAYAEEFGNETWGVTKAAEKQMKDKQDEEQRLKEEEEDKKRKEEEEAEDKEDDEDKDEDEEDEEDKEEDEEEDVPGQAKDEL
notes: chaperone
As for B1, the EC50 was found to be 0.191 ± 0.04 µM with Aβ42 [1] and 0.843 ± 0.047 µM in the assay with tau MBD fragment.

B2: ERp57: chaperone (protein, UniProt P30101 25-505, looked up)
Protein disulfide-isomerase A3: SDVLELTDDNFESRISDTGSAGLMLVEFFAPWCGHCKRLAPEYEAAATRLKGIVPLAKVDCTANTNTCNKYGVSGYPTLKIFRDGEEAGAYDGPRTADGIVSHLKKQAGPASVPLRTEEEFKKFISDKDASIVGFFDDSFSEAHSEFLKAASNLRDNYRFAHTNVESLVNEYDDNGEGIILFRPSHLTNKFEDKTVAYTEQKMTSGKIKKFIQENIFGICPHMTEDNKDLIQGKDLLIAYYDVDYEKNAKGSNYWRNRVMMVAKKFLDAGHKLNFAVASRKTFSHELSDFGLESTAGEIPVVAIRTAKGEKFVMQEEFSRDGKALERFLQDYFDGNLKRYLKSEPIPESNDGPVKVVVAENFDEIVNNENKDVLIEFYAPWCGHCKNLEPKYKELGEKLSKDPNIVIAKMDATANDVPSPYEVRGFPTIYFSPANKKLNPKKYEGGRELSDFISYLQREATNPPVIQEEKPKKKKKAQEDL
Regarding B2, the EC50 was 0.321 ± 0.073 µM with Aβ42 [1] and 4.79 ± 1.19 µM with tau MBD fragment.

These data come from publication PMC6384891, “An automated microliter-scale high-throughput screening system (MSHTS) for real-time monitoring of protein aggregation using quantum-dot nanoprobes” (Scientific Reports, 2019).
